Reference: patent US8575163B2, “Pyrrolopyridinylpyrimidin-2-ylamine derivatives” (Merck Patent GmbH, priority 2009, dated 2013)

Target: T1, PDK1 (Homo sapiens, UniProt O15530)
T1 construct: His6 (N)
T1 sequence (O15530 51-556 limits assumed): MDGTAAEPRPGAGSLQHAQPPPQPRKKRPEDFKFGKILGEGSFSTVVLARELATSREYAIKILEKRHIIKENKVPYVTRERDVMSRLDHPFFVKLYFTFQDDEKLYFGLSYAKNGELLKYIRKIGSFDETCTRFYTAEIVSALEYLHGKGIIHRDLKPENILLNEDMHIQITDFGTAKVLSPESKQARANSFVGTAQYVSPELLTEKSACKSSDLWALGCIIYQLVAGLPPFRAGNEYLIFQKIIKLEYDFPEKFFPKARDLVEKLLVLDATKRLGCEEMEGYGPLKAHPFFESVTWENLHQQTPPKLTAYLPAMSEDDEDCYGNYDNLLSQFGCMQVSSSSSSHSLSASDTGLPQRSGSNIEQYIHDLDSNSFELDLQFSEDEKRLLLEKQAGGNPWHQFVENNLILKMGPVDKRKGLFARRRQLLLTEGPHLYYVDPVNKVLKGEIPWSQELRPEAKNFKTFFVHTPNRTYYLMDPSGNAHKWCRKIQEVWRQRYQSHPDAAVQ
Test: Test for the inhibition of PDK1 (flashplate, 33P-ATP)
Type: biochemical
Conditions: His6-PDK1 3.4 nM, 4 μM ATP, 30° C., 60 min
Experimental: The experimental batches are carried out in a flashplate system with 384 wells/microtitration plate.
In each case, the PDK1 sample His6-PDK1(1-50)(3.4 nM), the PDK1 substrate biotin-bA-bA-[…] (400 nM), 4 μM ATP (with 0.2 μCi of ^33 P-ATP/well) and the test substance in 50 μl of conventional experimental solution per well are incubated at 30° C. for 60 min. The test substances are employed in corresponding concentrations (if desired in a dilution series). The control is carried out without test substance. The reaction is stopped using standard methods and washed. The activity of the kinase is measured via the incorporated radioactivity in top count. In order to determine the non-specific kinase reaction (blank value), the experimental batches are carried out in the presence of 100 nM staurosporin.
The radioactivity (decompositions per minute) of the blank value (no use of test substance in the presence of staurosporin) is subtracted from all other radioactivity values. The controls (kinase activity without test substance) are set equal to 100 percent and all other radioactivity values (after subtracting the blank value) are expressed set in relation thereto (for example in % of the control).
[formula] IC50 values (50% inhibition) are determined with the aid of statistics programmes, such as, for example, RS1.

Compound	IC50
CCC(O)(c1cccc(F)c1)c1cc(-c2c[nH]c3ncc(-c4ccc(CO)cc4)cc23)nc(N)n1 (single isomer, unassigned) [A33, 1-{2-amino-6-[5-(4-hydroxymethylphenyl)-1H-pyrrolo[2,3-b]pyridin-3-yl]-pyrimidin-4-yl}-1-(3-fluorophenyl)propan-1-ol]	170 nM
Cn1cc(-c2cnc3[nH]cc(-c4cc(C(C)(O)c5cccnc5)nc(N)n4)c3c2)cn1 (single isomer, unassigned) [A58, 1-{2-amino-6-[5-(1-methyl-1H-pyrazol-4-yl)-1H-pyrrolo[2,3-b]pyridin-3-yl]-pyrimidin-4-yl}-1-pyridin-3-ylethanol]	85 nM
CNc1nc(-c2c[nH]c3ncc(-c4cnn(CCO)c4)cc23)cc(C(C)(O)c2ccccc2)n1 (single isomer, unassigned) [A91, 1-(6-{5-[1-(2-hydroxyethyl)-1H-pyrazol-4-yl]-1H-pyrrolo[2,3-b]pyridin-3-yl}-2-methylaminopyrimidin-4-yl)-1-phenylethanol]	50 nM
CO[C@@](C)(c1ccccc1)c1cc(-c2c[nH]c3ncc(-c4cnn(CCO)c4)cc23)nc(N)n1 (single isomer, unassigned) [A93]	48 nM
COCOC(C)(c1cccc(F)c1)c1nc(N)nc(-c2c[nH]c3ncc(Br)cc23)c1F (stereo not shown) [A12, 4-(5-bromo-1H-pyrrolo[2,3-b]pyridin-3-yl)-5-fluoro-6-[1-(3-fluorophenyl)-1-methoxymethoxyethyl]pyrimidin-2-ylamine]	> 20000 nM
CC(C(=O)N1CCCC1)n1cc(-c2cnc3[nH]cc(-c4cc(C(C)(O)c5ccccc5)nc(N)n4)c3c2)cn1 (stereo not shown) [A14, 2-(4-{3-[2-amino-6-(1-hydroxy-1-phenylethyl)pyrimidin-4-yl]-1H-pyrrolo-[2,3-b]pyridin-5-yl}pyrazol-1-yl)-1-pyrrolidin-1-ylpropan-1-one]	39 nM
COCOC(C)(c1ccccc1)c1cc(-c2c[nH]c3ncc(Br)cc23)nc(N)n1 (stereo not shown) [A15, 4-(5-bromo-1H-pyrrolo[2,3-b]pyridin-3-yl)-6-(1-methoxymethoxy-1-phenylethyl)pyrimidin-2-ylamine]	500 nM
CCCC(O)(c1ccccc1)c1cc(-c2c[nH]c3ncc(Br)cc23)nc(N)n1 (stereo not shown) [A16, 1-[2-amino-6-(5-bromo-1H-pyrrolo[2,3-b]pyridin-3-yl)pyrimidin-4-yl]-1-phenylbutan-1-ol]	280 nM
COCOC(C)(c1ccccc1)c1cc(-c2c[nH]c3ncc(-c4cnn(C)c4)cc23)nc(N)n1 (stereo not shown) [A17, 4-(1-methoxymethoxy-1-phenylethyl)-6-[5-(1-methyl-1H-pyrazol-4-yl)-1H-pyrrolo[2,3-b]pyridin-3-yl]pyrimidin-2-ylamine]	58 nM
COCOC(C)(c1cc(-c2c[nH]c3ncc(Br)cc23)nc(N)n1)c1ccccc1C (stereo not shown) [A19, 4-(5-bromo-1H-pyrrolo[2,3-b]pyridin-3-yl)-6-(1-methoxymethoxy-1-o-tolylethyl)pyrimidin-2-ylamine]	1500 nM
COCOC(C)(c1cccc(C)c1)c1cc(-c2c[nH]c3ncc(-c4cnn(CCO)c4)cc23)nc(N)n1 (stereo not shown) [A22, 2-(4-{3-[2-amino-6-(1-methoxymethoxy-1-m-tolylethyl)pyrimidin-4-yl]-1H-pyrrolo[2,3-b]pyridin-5-yl}pyrazol-1-yl)ethanol]	59 nM
COCOC(C)(c1cccc(C)c1)c1cc(-c2c[nH]c3ncc(-c4cnn(C)c4)cc23)nc(N)n1 (stereo not shown) [A23, 4-(1-methoxymethoxy-1-m-tolylethyl)-6-[5-(1-methyl-1H-pyrazol-4-yl)-1H-pyrrolo[2,3-b]pyridin-3-yl]pyrimidin-2-ylamine]	130 nM
Cn1cc(-c2cnc3[nH]cc(-c4cc(C(C)(O)c5cccnc5)nc(N)n4)c3c2)cn1 (stereo not shown) [A24, 1-{2-amino-6-[5-(1-methyl-1H-pyrazol-4-yl)-1H-pyrrolo[2,3-b]pyridin-3-yl]-pyrimidin-4-yl}-1-pyridin-3-ylethanol]	56 nM
COCOC(C)(c1ccccc1)c1cc(-c2c[nH]c3ncc(-c4cnn(C)c4)cc23)nc(N)n1 (stereo not shown) [A25, 4-(1-methoxymethoxy-1-phenylethyl)-6-[5-(1-methyl-1H-pyrazol-4-yl)-1H-pyrrolo[2,3-b]pyridin-3-yl]pyrimidin-2-ylamine]	58 nM
CCC(O)(c1cccnc1)c1cc(-c2c[nH]c3ncc(-c4cnn(C)c4)cc23)nc(N)n1 (stereo not shown) [A26, 1-{2-amino-6-[5-(1-methyl-1H-pyrazol-4-yl)-1H-pyrrolo[2,3-b]pyridin-3-yl]-pyrimidin-4-yl}-1-pyridin-3-ylpropan-1-ol]	43 nM
COCOC(C)(c1cc(-c2c[nH]c3ncc(-c4cnn(C)c4)cc23)nc(N)n1)c1cccc(Cl)c1F (stereo not shown) [A29, 4-[1-(3-chloro-2-fluorophenyl)-1-methoxymethoxyethyl]-6-[5-(1-methyl-1H-pyrazol-4-yl)-1H-pyrrolo[2,3-b]pyridin-3-yl]pyrimidin-2-ylamine]	40 nM

Further lines, results first:

IC50	Compound
10 nM	Cn1cc(-c2cnc3[nH]cc(-c4cc(C(C)(O)c5ccccc5F)nc(N)n4)c3c2)cn1 (racemic) [A102, 1-{2-amino-6-[5-(1-methyl-1H-pyrazol-4-yl)-1H-pyrrolo[2,3-b]pyridin-3-yl]-pyrimidin-4-yl}-1-(2-fluorophenyl)ethanol]
2.2 nM	CCC(O)(c1ccncc1)c1cc(-c2c[nH]c3ncc(-c4cnn(C)c4)cc23)nc(N)n1 (single isomer, unassigned) [A20, 1-{2-amino-6-[5-(1-methyl-1H-pyrazol-4-yl)-1H-pyrrolo[2,3-b]pyridin-3-yl]-pyrimidin-4-yl}-1-pyridin-4-ylpropan-1-ol]
36 nM	CCC(O)(c1ccncc1)c1cc(-c2c[nH]c3ncc(-c4cnn(C)c4)cc23)nc(N)n1 (single isomer, unassigned) [A21, 1-{2-amino-6-[5-(1-methyl-1H-pyrazol-4-yl)-1H-pyrrolo[2,3-b]pyridin-3-yl]-pyrimidin-4-yl}-1-pyridin-4-ylpropan-1-ol]
1.6 nM	CCC(O)(c1ccncc1)c1cc(-c2c[nH]c3ncc(-c4cn[nH]c4)cc23)nc(N)n1 (single isomer, unassigned) [A43, 1-{2-amino-6-[5-(1H-pyrazol-4-yl)-1H-pyrrolo[2,3-b]pyridin-3-yl]pyrimidin-4-yl}-1-pyridin-4-ylpropan-1-ol]
17 nM	CCC(O)(c1ccncc1)c1cc(-c2c[nH]c3ncc(-c4cn[nH]c4)cc23)nc(N)n1 (single isomer, unassigned) [A44, 1-{2-amino-6-[5-(1H-pyrazol-4-yl)-1H-pyrrolo[2,3-b]pyridin-3-yl]pyrimidin-4-yl}-1-pyridin-4-ylpropan-1-ol]
28 nM	Cn1cc(-c2cnc3[nH]cc(-c4cc(C(C)(O)c5cccnc5)nc(N)n4)c3c2)cn1 (single isomer, unassigned) [A57, 1-{2-amino-6-[5-(1-methyl-1H-pyrazol-4-yl)-1H-pyrrolo[2,3-b]pyridin-3-yl]-pyrimidin-4-yl}-1-pyridin-3-ylethanol]
21 nM	CNc1nc(-c2c[nH]c3ncc(-c4cnn(CCO)c4)cc23)cc(C(C)(O)c2ccccc2)n1 (single isomer, unassigned) [A90, 1-(6-{5-[1-(2-hydroxyethyl)-1H-pyrazol-4-yl]-1H-pyrrolo[2,3-b]pyridin-3-yl}-2-methylaminopyrimidin-4-yl)-1-phenylethanol]
35 nM	CO[C@](C)(c1ccccc1)c1cc(-c2c[nH]c3ncc(-c4cnn(CCO)c4)cc23)nc(N)n1 (single isomer, unassigned) [A92]
18 nM	CC(O)(c1ccccc1)c1cc(-c2c[nH]c3ncc(-c4cnn(CCO)c4)cc23)nc(N)n1 (single isomer, unassigned) [A96, 1-(2-amino-6-{5-[1-(2-hydroxyethyl)-1H-pyrazol-4-yl]-1H-pyrrolo[2,3-b]-pyridin-3-yl}pyrimidin-4-yl)-1-phenylethanol]
38 nM	CC(O)(c1ccccc1)c1cc(-c2c[nH]c3ncc(-c4cnn(CCO)c4)cc23)nc(N)n1 (single isomer, unassigned) [A97, 1-(2-amino-6-{5-[1-(2-hydroxyethyl)-1H-pyrazol-4-yl]-1H-pyrrolo[2,3-b]-pyridin-3-yl}pyrimidin-4-yl)-1-phenylethanol]
32 nM	COC(C)(c1ccccc1)c1cc(-c2c[nH]c3ncc(-c4cnn(CCO)c4)cc23)nc(N)n1 (stereo not shown) [A27, 2-(4-{3-[2-amino-6-(1-methoxy-1-phenylethyl)pyrimidin-4-yl]-1H-pyrrolo-[2,3-b]pyridin-5-yl}pyrazol-1-yl)ethanol]
6.9 nM	CCC(O)(c1ccncc1)c1cc(-c2c[nH]c3ncc(-c4cnn(C)c4)cc23)nc(N)n1 (stereo not shown) [A28, 1-{2-amino-6-[5-(1-methyl-1H-pyrazol-4-yl)-1H-pyrrolo[2,3-b]pyridin-3-yl]-pyrimidin-4-yl}-1-pyridin-4-ylpropan-1-ol]
